This note sets out measurements from patent publication US9586962B2, “Disubstituted octahydropyrrolo [3,4-C] pyrroles as orexin receptor modulators” (Janssen Pharmaceutica NV, priority 2011, dated 2017).

Each structure is given as a SMILES string.

The assay deals with human orexin 2 receptor (Homo sapiens (Human), UniProt O43614). Description: Human orexin 2 receptor Ca2+ mobilization assay (FLIPR, PFSK cells, orexin B 100 nM). Particulars: modified Cheng-Prusoff correction, read-out: OR 2 Kb. The class given is cell-based. The procedure: Human Orexin 2 Receptor Ca^2+ Mobilization Assay
human orexin 2 receptor, sequence (O43614 whole entry): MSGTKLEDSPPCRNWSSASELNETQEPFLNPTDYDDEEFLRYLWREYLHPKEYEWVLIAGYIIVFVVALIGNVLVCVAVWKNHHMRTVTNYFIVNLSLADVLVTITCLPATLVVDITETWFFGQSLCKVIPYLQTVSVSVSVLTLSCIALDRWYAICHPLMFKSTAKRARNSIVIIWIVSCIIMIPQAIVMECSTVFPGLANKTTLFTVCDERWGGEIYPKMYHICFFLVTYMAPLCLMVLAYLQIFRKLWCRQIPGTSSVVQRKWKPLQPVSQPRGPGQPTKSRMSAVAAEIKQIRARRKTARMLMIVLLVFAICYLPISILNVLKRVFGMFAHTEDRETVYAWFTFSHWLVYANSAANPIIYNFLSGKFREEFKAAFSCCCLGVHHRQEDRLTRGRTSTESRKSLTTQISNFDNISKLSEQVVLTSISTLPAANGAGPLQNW
Cells were seeded on to 96-well Packard viewplates at a density of 50,000 cells/well and incubated overnight at 37° C., 5% CO2. The cells were dye-loaded with 4 μM Ca^2+ dye Fluo-3AM in serum-free DMEM/F-12 with 2.5 mM probenecid and incubated at 37° C., 5% CO2 for one hour. Cells were pre-incubated with compounds (diluted in DMEM/F-12) for 30 minutes before agonist (orexin B, 100 nM) stimulation. Ligand-induced Ca^2+ release was measured using a Fluorometric Imaging Plate Reader (FLIPR, Molecular Devices, Sunnyvale, Calif.). Functional responses were measured as peak fluorescence intensity minus basal. The concentration of agonist that produced a half-maximal response is represented by the EC50 value. Antagonistic potency values were converted to apparent pKB values using a modified Cheng-Prusoff correction. Apparent pKB=−log IC50/1+[conc agonist/EC50]. Data are expressed as mean±S.E.M, the designation of NT means not tested.
In general terms: Calcium assays in cells follow changes in intracellular calcium, usually with a dye or a luminescent sensor.
As for `COc1cc(N2CC3CN(C(=O)c4c(F)cccc4-n4nccn4)CC3C2)nc(N(C)C)n1` (stereo not drawn) [Example 1, 4-[5-{[2-Fluoro-6-(2H-1,2,3-triazol-2-yl)phenyl]carbonyl}hexahydropyrrolo[3,4-c]pyrrol-2(1H)-yl]-6-methoxy-N,N-dimethylpyrimidin-2-amine], the Kb is 10 nM. For `CN(C)c1cc(N2CC3CN(C(=O)c4ccccc4-n4nccn4)CC3C2)nc(C(F)(F)F)n1` (stereo not drawn) [Example 2, N,N-Dimethyl-6-[5-{[2-(2H-1,2,3-triazol-2-yl)phenyl]carbonyl}hexahydropyrrolo[3,4-c]pyrrol-2(1H)-yl]-2-(trifluoromethyl)pyrimidin-4-amine] the value was 16 nM. Consider `CN(C)c1cc(N2CC3CN(C(=O)c4c(F)cccc4-n4nccn4)CC3C2)nc(C(F)(F)F)n1` (stereo not drawn) [Example 3, 6-[5-{[2-Fluoro-6-(2H-1,2,3-triazol-2-yl)phenyl]carbonyl}hexahydropyrrolo[3,4-c]pyrrol-2(1H)-yl]-N,N-dimethyl-2-(trifluoromethyl)pyrimidin-4-amine], for which the Kb came to 14 nM. For the molecule `COc1cc(N2CC3CN(C(=O)c4cc(F)ccc4-n4nccn4)CC3C2)nc(N(C)C)n1` (stereo not drawn) [Example 4, 4-[5-{[5-Fluoro-2-(2H-1,2,3-triazol-2-yl)phenyl]carbonyl}hexahydropyrrolo[3,4-c]pyrrol-2(1H)-yl]-6-methoxy-N,N-dimethylpyrimidin-2-amine], the Kb is 32 nM.

Consider `COc1cc(N2CC3CN(C(=O)c4ccccc4-n4nccn4)CC3C2)nc(N(C)C)n1` (stereo not drawn) [Example 5, 4-Methoxy-N,N-dimethyl-6-[5-{[2-(2H-1,2,3-triazol-2-yl)phenyl]carbonyl}hexahydropyrrolo-[3,4-c]pyrrol-2(1H)-yl]pyrimidin-2-amine], for which the Kb amounted to 5 nM.

Take `CN(C)c1cc(N2CC3CN(C(=O)c4ccc(F)cc4-n4nccn4)CC3C2)nc(C(F)(F)F)n1` (stereo not drawn) [Example 6, 6-[5-{[4-Fluoro-2-(2H-1,2,3-triazol-2-yl)phenyl]carbonyl}hexahydropyrrolo[3,4-c]pyrrol-2(1H)-yl]-N,N-dimethyl-2-(trifluoromethyl)pyrimidin-4-amine]: the Kb was determined as 25 nM. On to `COc1cc(N2CC3CN(C(=O)c4ccc(F)cc4-n4nccn4)CC3C2)nc(N(C)C)n1` (stereo not drawn) [Example 7, 4-[5-{[4-Fluoro-2-(2H-1,2,3-triazol-2-yl)phenyl]carbonyl}hexahydropyrrolo[3,4-c]pyrrol-2(1H)-yl]-6-methoxy-N,N-dimethylpyrimidin-2-amine], for which the Kb was found to be 13 nM. Regarding `CN(C)c1cc(N2CC3CN(C(=O)c4cc(F)ccc4-n4nccn4)CC3C2)nc(C(F)(F)F)n1` (stereo not drawn) [Example 9, 6-[5-{[5-Fluoro-2-(2H-1,2,3-triazol-2-yl)phenyl]carbonyl}hexahydropyrrolo[3,4-c]pyrrol-2(1H)-yl]-N,N-dimethyl-2-(trifluoromethyl)pyrimidin-4-amine], the Kb is 56 nM.

`Cc1cc(C)nc(N2CC3CN(C(=O)c4sccc4-c4ccccc4)CC3C2)n1` (stereo not drawn) [Example 12, 2-(4,6-Dimethylpyrimidin-2-yl)-5-[(3-phenylthiophen-2-yl)carbonyl]octahydropyrrolo[3,4-c]pyrrole]: the Kb was 32 nM. Take `Cc1cc(C)nc(N2CC3CN(C(=O)c4occc4-c4ccccc4)CC3C2)n1` (stereo not drawn) [Example 13, 2-(4,6-Dimethylpyrimidin-2-yl)-5-[(3-phenylfuran-2-yl)carbonyl]octahydropyrrolo[3,4-c]pyrrole]: the Kb turned out to be 79 nM. As for `Cc1cc(C)nc(N2CC3CN(C(=O)c4ccccc4-c4nnc[nH]4)CC3C2)n1` (stereo not drawn) [Example 14, 2-(4,6-Dimethylpyrimidin-2-yl)-5-{[2-(1H-1,2,4-triazol-5-yl)phenyl]carbonyl}octahydro-pyrrolo[3,4-c]pyrrole], the Kb is 9 nM.

On to `O=C(c1ccccc1-c1cccs1)N1CC2CN(c3cnc4ccccc4n3)CC2C1` (stereo not drawn) [Example 19, 2-{5-[(2-Thiophen-2-ylphenyl)carbonyl]hexahydropyrrolo[3,4-c]pyrrol-2(1H)-yl}quinoxaline], for which the Kb turned out to be 31 nM. For `Cc1ccc2ccccc2c1C(=O)N1CC2CN(c3cnc4ccccc4n3)CC2C1` (stereo not drawn) [Example 20, 2-{5-[(2-Methylnaphthalen-1-yl)carbonyl]hexahydropyrrolo[3,4-c]pyrrol-2(1H)-yl}quinoxaline] the value was 129 nM.

As for `O=C(c1ccccc1-c1cccs1)N1CC2CN(c3nccc(-c4ccccc4)n3)CC2C1` (stereo not drawn) [Example 22, 2-(4-Phenylpyrimidin-2-yl)-5-[(2-thiophen-2-ylphenyl)carbonyl]octahydro-pyrrolo[3,4-c]pyrrole], the Kb came out at 158 nM. Regarding `Cc1ccc2ccccc2c1C(=O)N1CC2CN(c3nccc(-c4ccccc4)n3)CC2C1` (stereo not drawn) [Example 25, 2-[(2-Methylnaphthalen-1-yl)carbonyl]-5-(4-phenylpyrimidin-2-yl)octahydropyrrolo[3,4-c]pyrrole], the Kb stood at 99 nM. `Cc1ccnc(N2CC3CN(C(=O)c4ccccc4-c4cccs4)CC3C2)n1` (stereo not drawn) [Example 32, 2-(4-Methylpyrimidin-2-yl)-5-[(2-thiophen-2-ylphenyl)carbonyl]octahydro-pyrrolo[3,4-c]pyrrole]: the Kb amounted to 32 nM. For the molecule `Cc1cc(C)nc(N2CC3CN(C(=O)c4ccccc4-c4cccs4)CC3C2)n1` (stereo not drawn) [Example 43, 2-(4,6-Dimethylpyrimidin-2-yl)-5-[(2-thiophen-2-ylphenyl)carbonyl]octahydro-pyrrolo[3,4-c]pyrrole], the Kb stood at 10 nM.

Regarding `Cc1cc(C)nc(N2CC3CN(C(=O)c4ccccc4-c4ccccc4)CC3C2)n1` (stereo not drawn) [Example 44, 2-(Biphenyl-2-ylcarbonyl)-5-(4,6-dimethylpyrimidin-2-yl)octahydropyrrolo[3,4-c]pyrrole], the Kb amounted to 63 nM.

Turning to `COc1ccnc(N2CC3CN(C(=O)c4ccccc4-c4cccs4)CC3C2)n1` (stereo not drawn) [Example 45, 2-(4-Methoxypyrimidin-2-yl)-5-[(2-thiophen-2-ylphenyl)carbonyl]octahydro-pyrrolo[3,4-c]pyrrole], the Kb was determined as 10 nM. To `Cc1cc(C)nc(N2CC3CN(C(=O)c4c(C)ccc5ccccc45)CC3C2)n1` (stereo not drawn) [Example 47, 2-(4,6-Dimethylpyrimidin-2-yl)-5-[(2-methylnaphthalen-1-yl)carbonyl]octahydro-pyrrolo[3,4-c]pyrrole] belongs 32 nM; to `COc1ccnc(N2CC3CN(C(=O)c4c(C)ccc5ccccc45)CC3C2)n1` (stereo not drawn) [Example 49, 2-(4-Methoxypyrimidin-2-yl)-5-[(2-methylnaphthalen-1-yl)carbonyl]octahydro-pyrrolo[3,4-c]pyrrole], 32 nM.

On to `Cc1cc(C)nc(N2CC3CN(C(=O)c4ccccc4-c4cccc(F)c4)CC3C2)n1` (stereo not drawn) [Example 52, 2-(4,6-Dimethylpyrimidin-2-yl)-5-[(3′-fluorobiphenyl-2-yl)carbonyl]octahydro-pyrrolo[3,4-c]pyrrole], for which the Kb amounted to 50 nM. Consider `CCOc1ccc2ccccc2c1C(=O)N1CC2CN(c3nccc(OC)n3)CC2C1` (stereo not drawn) [Example 56, 2-[(2-Ethoxynaphthalen-1-yl)carbonyl]-5-(4-methoxypyrimidin-2-yl)octahydropyrrolo[3,4-c]pyrrole], for which the Kb is 40 nM. `O=C(c1ccccc1-c1cccs1)N1CC2CN(c3nccc(-c4cn[nH]c4)n3)CC2C1` (stereo not drawn) [Example 62, 2-[4-(1H-Pyrazol-4-yl)pyrimidin-2-yl]-5-[(2-thiophen-2-ylphenyl)carbonyl]octahydro-pyrrolo[3,4-c]pyrrole]: the Kb was 40 nM.
